Data on eight compounds can be found in patent US9174998B2, “(6S,9aS)-N-benzyl-6-[(4-hydroxyphenyl)methyl]-4,7-dioxo-8-({6-[3-(piperazin-1-yl)azetidin-1-yl]pyridin-2-yl}methyl)-2-(prop-2-en-1-yl)-octahydro-1H-pyrazino[2,1-c][1,2,4]triazine-1-carboxamide compound” (Eisai R&D Management Co., Ltd., priority 2013, dated 2015).

Converted amounts (≈) assume the structure as drawn. Read-outs that look alike come from different tables or passages of the source.

Data set [1] can be described thus: PAMPA test (parallel artificial membrane permeability assay). It is filed as in vitro ADME. The conditions noted are these: phosphate buffer pH 6.8, about 200 μM, about 5 hours, room temperature, read-out: Test Example 4 membrane permeation coefficient Pe. The procedure:
A test solution (see below) was stirred while shaking at room temperature for about 5 hours using a 96-well PAMPA plate (BD Biosciences) in which a lipid had been precoated onto a polyvinylidene fluoride (PVDF) film to evaluate the membrane permeation coefficient Pe (cm/s) of each compound dissolved in the test solution (concentration: about 200 μM) upon the transport of the compound from a donor side to an acceptor side through a lipid membrane. The Pe value was calculated in accordance with equations 1 and 2, and the concentration of the compound on the donor side and the acceptor side was measured by a HPLC-UV method. In 0.3 mL of the test solution on the donor side is contained about 1% (v/v) of DMSO, since 3 μL of a DMSO solution containing the compound at a concentration of 20 mM was added to the test solution.
Test solution: a phosphate buffer solution having a pH value of 6.8 (90 mM of phosphate, 48 mM of NaCl, 5.4 mM of KCl)
Conditions for stirring: a multishaker MS-300 (AS ONE Corporation), 350 rpm
[formula] CD(t): compound concentration in donor well at time t CA(t): compound concentration in acceptor well at time t VD: donor well volume (0.3 mL) VA: acceptor well volume (0.2 mL) A: filter area (0.3 cm^2)

A short description of data set [2]: Evaluation of metabolic stability. Format: in vitro ADME, human. The conditions noted are these: 0.2 mg/mL HLM, 0.1 μM test substance, 15 minutes at 37° C., with vs without NADPH production. On the procedure:
A test substance was dissolved in DMSO so that the concentration of the resultant solution became 20 mM, and the solution was diluted with DMSO so that the concentration of the resultant solution became 1 mM. The metabolic stability of the test substance was evaluated using a human liver microsome (HLM) in which human liver was pooled. An assay buffer solution contained 0.2 mg/mL of HLM, a 0.1 M of phosphate potassium buffer solution (pH 7.4), 0.1 mM of EDTA, 0.33 mM of NADP+, 8 mM of glucose-6-phosphate, 0.1 U/mL of glucose-6-phosphate dehydrogenase, 6 mM of MgCl2, 0.1 μM of a test substance (final concentration in DMSO: 0.01%) in 0.15 mL of the final incubation volume. Fifteen minutes after the initiation of the reaction at 37° C., 0.15 mL of a acetonitrile/methanol mixed solution (7:3, by volume) was added to the solution to terminate the reaction. After centrifugation, the resultant supernatant was analyzed by LC-MSMS, peak areas were compared under the presence or absence of the production of NADPH, and the residual ratio of the test substance was calculated.

Data set [3] in a line: Evaluation of solubility (DMSO stock into PBS, HPLC-UV). Conditions: Dulbecco's phosphate-buffered saline pH 7, room temperature, about 15 minutes shaking, values greater than 200 μM regarded as 200 μM, read-out: Test Example 3 solubility. Format: physicochemical. On the procedure: To 0.25 mL of a test solution a mentioned below was added 2.5 μL of a DMSO solution having a compound concentration of 20 mM. The resultant solution was shaken at room temperature for about 15 minutes (the conditions for the shaking are mentioned below). Subsequently, a supernatant was collected by a suction filtration under a reduced pressure. A DMSO solution having a compound concentration of 200 μM was used as a standard solution, and the concentration of a compound in a filtrate which was quantified by a HPLC-UV method was employed as a solubility (rounded off to the whole number). In this evaluation, since a value 200 μM became the upper limit operationally, all of quantification values greater than 200 μM were regarded as 200 μM.
Test solution: GIBCO (registered trade name) Dulbecco's phosphate-buffered saline (pH 7, Life Technologies Corporation)
Conditions for shaking: a microplate shaker N-704 (Nissinrika Corporation), speed 6

In data set [4] the test system is Wnt signal. The data set can be described thus: Detection of Wnt signal (TOPglow luciferase reporter, LiCl-stimulated). Format: cell-based. Conditions: Homo sapiens; HEK293 clone carrying pNeo-TOP reporter; LiCl stimulation; luciferase luminescence; read-out: Test Example 1 IC50 (concentration required for inhibiting the Wnt signal activity by 50%). The procedure: pcDNA3.1(+) (invitrogen) was cleaved with restriction enzymes BglII and NotI, and an adapter BEHKS having a sequence shown below (containing restriction enzyme sites BglII, EcoRI, HindIII, KpnI, SacI and NotI) was inserted thereinto, thereby producing a plasmid pNeo-HKS.
Subsequently, a fragment having a length of about 2700 bp (containing a Wnt-responsive sequence and a luciferase gene), which was prepared by cleaving from a TOPglow plasmid contained in a TOPglow/FOPglow TCF Reporter Kit (upstate Catalog#17-366) with restriction enzymes HindIII and KpnI, was inserted between HindIII and KpnI in pNeo-HKS, thereby producing a plasmid pNeo-TOP. The plasmid pNeo-TOP was introduced into human fetus-derived renal cell strain HEK293, then a compound was selected using G418, and then a cell clone strain was established by a limiting dilution method. The cell clone strain was subjected to a Wnt signal detection test.
The cell clone strain was subcultured in a D-MEM glucose-rich culture medium (Wako Pure Chemical Industries, Ltd.) containing 10% FBS, and cells in a growth phase were used in the test. Cells were collected using trypsin-EDTA, the number of the cells was counted, and then the cells were suspended in a D-MEM glucose-rich culture medium containing 10% FBS so that the number of cells became 2×10^5 cells/mL. The cell suspension was added to a 96-well cell culture plate (Greiner Bio-One Co., Ltd., product number: 655083) in an amount of 0.1 mL/well and then cultured overnight in a 5% CO2 incubator (37° C.). After the culturing, a substance to be tested, which was dissolved in DMSO, was diluted with a D-MEM glucose-rich culture medium containing 10% of FBS and 80 mM of LiCl to produce a sample solution. The sample solution (0.1 mL) was added to each well and then cultured in a 5% CO2 incubator (37° C.) […]. Six hours after the addition of the sample solution, a supernatant was removed from each well, and then 50 μL of Bright-Glo™ Luciferase substrate (Promega, product number: E2620) was added thereto. The plate was put on a plate mixer for several seconds, and then the emission of light from each well was measured using a EnVision™ Multilabel plate reader (PerkinElmer Co., Ltd.). The Wnt signal activation rate (%) of each well was determined, and a concentration (IC50) which is required for inhibiting the Wnt signal activity of a substance of interest by 50% was calculated, wherein the luminosity of a well to which a sample solution was not added and LiCl was added was defined as a 100% Wnt signal activity and the luminosity of a well to which either of a sample solution or LiCl was not added was defined as a 0% Wnt signal activity.
(In general: Reporter assays use an easily measured gene product as a stand-in for the process of interest.)

Where [5] appears, read: aqueous buffer, kinetic from dmso stock.

For `C=CCN1CC(=O)N2[C@@H](Cc3ccc(O)cc3F)C(=O)N(Cc3cccc(N4CC(N5CCN(C)[C@H](C)C5)C4)n3)C[C@@H]2N1C(=O)NCc1ccccc1` [Example 5, (6S,9aS)-N-Benzyl-8-((6-(3-((3R)-3,4-dimethylpiperazin-1-yl)azetidin-1-yl)pyridin-2-yl)methyl)-6-((2-fluoro-4-hydroxyphenyl)methyl)-4,7-dioxo-2-(prop-2-en-1-yl)-octahydro-1H-pyrazino[2,1-c][1,2,4]triazine-1-carboxamide], the Papp in data set [1] turned out to be 11.8 nm/s. Besides, in data set [2], the “Test Example 2 residual ratio of the test substance” value (shortened to “Test Example 2 residual ratio”) was 39%. Further, the solubility in data set [3] was 200 µM (≈ 145 µg/mL). The IC50 in data set [4] turned out to be 0.082 µM.

For `C=CCN1CC(=O)N2[C@@H](Cc3ccc(O)cc3F)C(=O)N(Cc3ccc(F)c(N4CC(N5CCN(C)CC5)C4)n3)C[C@@H]2N1C(=O)NCc1ccccc1` [Example 10, (6S,9aS)-N-Benzyl-6-((2-fluoro-4-hydroxyphenyl)methyl)-8-((5-fluoro-6-(3-(4-methylpiperazin-1-yl)azetidin-1-yl)pyridin-2-yl)methyl)-4,7-dioxo-2-(prop-2-en-1-yl)-octahydro-1H-pyrazino[2,1-c][1,2,4]triazine-1-carboxamide], the Papp in data set [1] was 37.5 nm/s. In data set [2], the “Test Example 2 residual ratio” value amounted to 28%. For the same compound, in data set [3] (setting [5]), the solubility came out at 184 µM (≈ 134 µg/mL). Also, in data set [4], the IC50 amounted to 0.044 µM.

On to `C=CCN1CC(=O)N2[C@@H](Cc3ccc(O)cc3)C(=O)N(Cc3cccnc3N3CCC(N4CCCC4)CC3)C[C@@H]2N1C(=O)NCc1ccccc1` [Comparative Example 1, (6S,9aS)-N-Benzyl-6-(4-hydroxybenzyl)-4,7-dioxo-8-((2-(4-(pyrrolidin-1-yl)piperidin-1-yl)pyridin-3-yl)methyl)-2-(prop-2-en-1-yl)-octahydro-1H-pyrazino[2,1-c][1,2,4]triazine-1-carboxamide, reference compound], for which the Papp in data set [1] amounted to 13.4 nm/s. Also, the “Test Example 2 residual ratio” value in data set [2] was determined as 52.9%. Besides, in data set [3] (setting [5]), the solubility stood at 97 µM (≈ 67.2 µg/mL). Also, the IC50 in data set [4] came to 23.2 µM.

In the case of `C=CCN1CC(=O)N2[C@@H](Cc3ccc(O)cc3F)C(=O)N(Cc3cccc(N4CC(N(C)CCN5CCOCC5)C4)n3)C[C@@H]2N1C(=O)NCc1ccccc1` [Reference Example 5, (6S,9aS)-N-Benzyl-6-((2-fluoro-4-hydroxyphenyl)methyl)-8-((6-(3-(methyl(2-(morpholin-4-yl)ethyl)amino)azetidin-1-yl)pyridin-2-yl)methyl)-4,7-dioxo-2-(prop-2-en-1-yl)-octahydro-1H-pyrazino[2,1-c][1,2,4]triazine-1-carboxamide], the Papp in data set [1] was determined as 22.5 nm/s. Besides, in data set [2], the “Test Example 2 residual ratio” value turned out to be 22%. Moreover, in data set [3] (setting [5]), the solubility came to 181 µM (≈ 137 µg/mL). Moreover, the IC50 in data set [4] turned out to be 0.13 µM.

As to `C=CCN1CC(=O)N2[C@@H](Cc3ccc(O)cc3)C(=O)N(Cc3cccc(N4CC(N5CCN(CC)CC5)C4)n3)C[C@@H]2N1C(=O)NCc1ccccc1` [Example 2, (6S,9aS)-N-Benzyl-8-((6-(3-(4-ethylpiperazin-1-yl)azetidin-1-yl)pyridin-2-yl)methyl)-6-((4-hydroxyphenyl)methyl)-4,7-dioxo-2-(prop-2-en-1-yl)-octahydro-1H-pyrazino[2,1-c][1,2,4]triazine-1-carboxamide], the Papp in data set [1] was determined as 13.2 nm/s. The “Test Example 2 residual ratio” value in data set [2] is reported as 58%. In data set [3], the solubility is 200 µM (≈ 142 µg/mL). The IC50 in data set [4] came to 0.29 µM.

On to `C=CCN1CC(=O)N2[C@@H](Cc3ccc(O)cc3F)C(=O)N(Cc3ccc(F)c(N4CC(N5CCC(N(C)C)CC5)C4)n3)C[C@@H]2N1C(=O)NCc1ccccc1` [Reference Example 3, (6S,9aS)-N-Benzyl-8-((6-(3-(4-(dimethylamino)piperidin-1-yl)azetidin-1-yl)-5-fluoropyridin-2-yl)methyl)-6-((2-fluoro-4-hydroxyphenyl)methyl)-4,7-dioxo-2-(prop-2-en-1-yl)-octahydro-1H-pyrazino[2,1-c][1,2,4]triazine-1-carboxamide], for which, in data set [1], the Papp amounted to 5.5 nm/s. Also, the “Test Example 2 residual ratio” value in data set [2] is recorded as 50%. In addition, the solubility in data set [3] (setting [5]) was 199 µM (≈ 151 µg/mL). In addition, the IC50 in data set [4] is 0.11 µM.

For the compound `C=CCN1CC(=O)N2[C@@H](Cc3c(F)cc(O)cc3F)C(=O)N(Cc3cccc(N4CC(N5CCN(C(C)C)CC5)C4)n3)C[C@@H]2N1C(=O)NCc1ccccc1` [Example 12, (6S,9aS)-N-Benzyl-6-((2,6-difluoro-4-hydroxyphenyl)methyl)-4,7-dioxo-2-(prop-2-en-1-yl)-8-((6-(3-(4-(propan-2-yl)piperazin-1-yl)azetidin-1-yl)pyridin-2-yl)methyl)-octahydro-1H-pyrazino[2,1-c][1,2,4]triazine-1-carboxamide], in data set [1], the Papp was 8.7 nm/s. For the same compound, the “Test Example 2 residual ratio” value in data set [2] is reported as 38%. Besides, the solubility in data set [3] (setting [5]) amounted to 188 µM (≈ 142 µg/mL). In addition, the IC50 in data set [4] was found to be 0.096 µM.

As to `C=CCN1CC(=O)N2[C@@H](Cc3ccc(O)cc3)C(=O)N(Cc3ccc(F)c(N4CC(N5CCN(C)CC5)C4)n3)C[C@@H]2N1C(=O)NCc1ccccc1` [Example 8, (6S,9aS)-N-Benzyl-8-((5-fluoro-6-(3-(4-methylpiperazin-1-yl)azetidin-1-yl)pyridin-2-yl)methyl)-6-((4-hydroxyphenyl)methyl)-4,7-dioxo-2-(prop-2-en-1-yl)-octahydro-1H-pyrazino[2,1-c][1,2,4]triazine-1-carboxamide], the Papp in data set [1] is 23 nm/s. Further, the “Test Example 2 residual ratio” value in data set [2] was 40%. For the same compound, the solubility in data set [3] (setting [5]) amounted to 195 µM (≈ 139 µg/mL). Besides, the IC50 in data set [4] was 0.2 µM.

Broadly, the solubility is the concentration that dissolves in the medium under given conditions.
